Results from patent US10927398B2, “Compositions for CYP450 phenotyping using saliva samples” (Concordia University, Inc., priority 2015, dated 2021).
“And” between values parts separate entries of the source, which are not always exact repeats. Identical values can stand only once. Like-named read-outs stand apart in the source and are kept apart here.

Tests used:
[1] = cited from earlier work
CYP3A4 [2] = biological target: T1, CYP3A4 (Homo sapiens, UniProt P08684); parameters: endogenous in cells; host or cells: healthy volunteers, in vivo; saliva sampled; settings: eplerenone; cited from earlier work
T1 sequence (P08684 whole entry): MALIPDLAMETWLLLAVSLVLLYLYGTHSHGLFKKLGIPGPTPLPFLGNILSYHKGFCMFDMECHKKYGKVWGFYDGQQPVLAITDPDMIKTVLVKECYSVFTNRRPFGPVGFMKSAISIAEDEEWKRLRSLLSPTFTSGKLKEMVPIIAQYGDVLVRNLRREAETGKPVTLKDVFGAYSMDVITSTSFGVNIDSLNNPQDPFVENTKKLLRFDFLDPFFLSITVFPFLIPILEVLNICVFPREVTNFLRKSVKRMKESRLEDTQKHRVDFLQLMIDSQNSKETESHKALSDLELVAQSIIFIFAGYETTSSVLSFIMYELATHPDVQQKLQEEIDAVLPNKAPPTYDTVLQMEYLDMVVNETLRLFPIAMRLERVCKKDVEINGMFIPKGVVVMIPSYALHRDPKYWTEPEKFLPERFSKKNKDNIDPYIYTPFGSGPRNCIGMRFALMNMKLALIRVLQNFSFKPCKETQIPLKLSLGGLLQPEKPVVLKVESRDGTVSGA

plasma protein = settings: Table of Exemplary Drugs, cited from earlier work
[3] = cited from earlier work; remark: listed apart in the source
CYP2D6 [4] = experiment: Saliva phenotyping with dextromethorphan probe (dextromethorphan/dextrorphan metabolic ratio); format: in vivo, human
Source text: 3. […] Record the time in your lab notebook.
1. […] Repeat with the other three saliva samples.
4. […] Repeat with the other three saliva samples.

CYP2D6 [5] = settings: Hou et al., saliva, cited from earlier work
CYP450 enzymes = settings: cited from earlier work
CYP2C19 [6] = test system: CYP2C19
CYP2C19 [7] = settings: saliva, repeat doses of Formulation #4, per subject and tablet #
[8] = without an enteric coating or base protection; cited from earlier work
CYP3A4 [9] = biological target: T1, CYP3A4; settings: parent and primary metabolite, CYP3A4 probe search
CYP1A2 = biological target: T2, CYP1A2 (Homo sapiens, UniProt P05177); experiment: Saliva phenotyping with caffeine probe (caffeine/paraxanthine metabolic ratio); format: in vivo
T2 sequence (P05177 1-516): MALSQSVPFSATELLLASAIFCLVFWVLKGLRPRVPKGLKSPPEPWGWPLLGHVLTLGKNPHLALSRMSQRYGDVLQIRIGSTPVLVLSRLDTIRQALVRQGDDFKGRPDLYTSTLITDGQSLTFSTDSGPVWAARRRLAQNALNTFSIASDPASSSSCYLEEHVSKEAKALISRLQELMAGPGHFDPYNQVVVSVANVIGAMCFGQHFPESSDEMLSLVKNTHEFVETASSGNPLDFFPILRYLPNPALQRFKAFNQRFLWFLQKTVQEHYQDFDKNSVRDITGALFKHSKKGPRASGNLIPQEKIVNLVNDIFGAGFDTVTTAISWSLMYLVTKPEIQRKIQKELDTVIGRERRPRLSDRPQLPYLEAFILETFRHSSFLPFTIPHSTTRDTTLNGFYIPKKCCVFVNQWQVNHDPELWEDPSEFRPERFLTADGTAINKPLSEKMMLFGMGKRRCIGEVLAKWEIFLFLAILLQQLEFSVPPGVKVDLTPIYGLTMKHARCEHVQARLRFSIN

[10] = Table of Exemplary Drugs, CYP3A4
[11] = saliva, healthy adults, dextromethorphan 30 mg
[12] = Table of Exemplary Drugs, CYP2C19
[13] = Table of Exemplary Drugs, CYP1A2
[14] = saliva, healthy adults, omeprazole 20 mg
[15] = Table of Exemplary Drugs, CYP2D6
[16] = Table of Exemplary Drugs, CYP2C9

COC(=O)[C@@H]1CC2=CC(=O)CC[C@]2(C)[C@@]23O[C@@H]2C[C@@]2(C)[C@@H](CC[C@@]24CCC(=O)O4)[C@H]13 [Eplerenone (Inspra), Eplerenone]
ORAL BIOAVAILABILITY [1, 10]: 69%
Tmax (CYP3A4 [2]): approximately 1.5 hours
PLASMA PROTEIN BINDING (plasma protein; CYP3A4): 50%
HALF-LIFE [3, 10]: 3 to 6 h

COc1ccc2c(c1)[C@]13CCCC[C@@H]1[C@H](C2)N(C)CC3 [Dextromethophan]
ORAL BIOAVAILABILITY ([1]; in vivo, po): 11%
antimode (MR) marking poor metabolizers (CYP2D6 [4]; saliva, 6 hours after a 30 mg delayed release dose): 27.5
CYP2D6 metabolic phenotype: Extensive (CYP2D6 [4]; [11]): 83.9%
CYP2D6 metabolic phenotype: Intermediate (CYP2D6 [4]; [11]): 9.2%
CYP2D6 metabolic phenotype: Poor (CYP2D6 [4]; [11]): 4.6%
CYP2D6 metabolic phenotype: Ultra-rapid (CYP2D6 [4]; [11]): 2.3%
antimode (MR) marking poor metabolizers (CYP2D6 [5]; healthy Chinese subjects, 3 hours after 50 mg immediate release): 14
antimode (MR) (CYP2D6 [5]; patients with renal disease, 3 hours after 30 mg immediate release): 33
HALF-LIFE ([3]; in vivo): 1.4 to 3.9 h

COCCCOc1ccnc(C[S+]([O-])c2nc3ccccc3[nH]2)c1C (stereo not shown) [Rabeprazole]
ORAL BIOAVAILABILITY [1, 12]: 52%
METABOLISM (CYP450 enzymes; CYP isoforms listed, Table of Exemplary Drugs, CYP2C19): 3A
HALF-LIFE [3, 12]: 1 to 2 h

COC(=O)C1=C(C)NC(C)=C(C(=O)OCCN(C)Cc2ccccc2)C1c1cccc([N+](=O)[O-])c1 (stereo not shown) [Nicardipine (Cardene), Nicardipine]
ORAL BIOAVAILABILITY [1, 10]: 35%
METABOLISM (CYP450 enzymes): 3A4, 2C8, 2D6
HALF-LIFE [3, 10]: 8.6 to 14.4 h

COc1ccc2nc([S+]([O-])Cc3ncc(CO)c(OC)c3C)[nH]c2c1 (stereo not shown) [5-hydroxy omeprazole]
concentrations in saliva (CYP2C19 [6]; in vivo): found in low concentrations in saliva of some individuals

Cn1c(=O)c2[nH]cnc2n(C)c1=O [Theophylline]
ORAL BIOAVAILABILITY [1, 13]: ~100%
METABOLISM (CYP450 enzymes; CYP isoforms listed, Table of Exemplary Drugs, CYP1A2): 2E1
HALF-LIFE [3, 13]: 1.5 to 9.8 h

COc1ccc2[nH]c([S+]([O-])Cc3ncc(C)c(OC)c3C)nc2c1 (stereo not shown) [Omeprazole]
concentrations in saliva (CYP2C19 [6]; over the counter formulations, some individuals): found in low concentrations in saliva of some individuals
CYP2C19 metabolic phenotype: Extensive (CYP2C19 [6]; [14]): 49.4%
CYP2C19 metabolic phenotype: Intermediate (CYP2C19 [6]; [14]): 31.3%
CYP2C19 metabolic phenotype: Poor (CYP2C19 [6]; [14]): 7.2%
CYP2C19 metabolic phenotype: Rapid (CYP2C19 [6]; [14]): 9.6%
CYP2C19 metabolic phenotype: Ultra-rapid (CYP2C19 [6]; [14]): 2.4%
ORAL BIOAVAILABILITY [1, 12]: 30-40%
Log10 Omeprazole/5-Hydroxy Omeprazole Metabolic Ratio (CYP2C19 [7]; time point 0.5 h): 0.9 and 2.3 (2×) and 1.4 and 2.4 and 3.5 and 3.1
Log10 Omeprazole/5-Hydroxy Omeprazole Metabolic Ratio (CYP2C19 [7]; time point 1 h): 1.2 (2×) and 0.7 (2×) and 1.5 and 1.1 and 1.3 and 1.9 and 1.4
Log10 Omeprazole/5-Hydroxy Omeprazole Metabolic Ratio (CYP2C19 [7]; time point 2 h): 0.6 (2×) and 0.5 and 1.3 (2×) and 0.9 and 0.8 and 1.1 and 1.0 and 1.2 and 0.4 and 2.0
Log10 Omeprazole/5-Hydroxy Omeprazole Metabolic Ratio (CYP2C19 [7]; time point 3 h): 0.4 (2×) and 0.7 and 0.9 (2×) and 0.8 and 0.6 (2×) and 1.3 (2×) and 0.05 and 0.2 and 1.6 and 1.0
Log10 Omeprazole/5-Hydroxy Omeprazole Metabolic Ratio (CYP2C19 [7]; time point 4 h): 0.4 (2×) and 1.2 and 1.0 and 0.6 (3×) and 0.7 and 0.9 and 0.03 and 1.3
PLASMA PROTEIN BINDING (plasma protein; CYP2C19): 95-96% ^
stability in acidic gastric fluids [8]: rapidly degrades
HALF-LIFE [3, 12]: 0.5 to 1 h

CN1CC[C@@]23CCCC[C@@H]2[C@@H]1Cc1ccc(O)cc13 [Dextrorphan]
concentrations in saliva (CYP2D6 [4]; individuals dosed with over the counter formulations): sometimes found in very low concentrations in saliva

COC(=O)[C@H]1[C@H]2[C@@H]3CC[C@@]4(CCC(=O)O4)[C@@]3(C)C[C@H]3O[C@@]23[C@@]2(C)CCC(=O)C=C2[C@@H]1O [6Beta-Hydroxy Eplerenone]
concentrations in saliva (CYP3A4 [9]): sufficiently high concentrations in saliva

Cn1c(=O)c2c(ncn2C)n(C)c1=O [Caffeine]
PLASMA PROTEIN BINDING (plasma protein; CYP1A2): 17-36% ^
complaints of individuals (CYP1A2; caffeine doses of 200 mg, some individuals): nervousness and anxiety
poor metabolizers, share of subjects (CYP1A2 phenotype) (CYP1A2; saliva, healthy primarily Caucasian adults, caffeine 200 mg): 7.8%

CN(C)CCc1c[nH]c2ccc(CS(=O)(=O)N3CCCC3)cc12 [Almortriptan (Axert), Almortriptan]
ORAL BIOAVAILABILITY [1, 10]: 70%
METABOLISM (CYP450 enzymes; CYP isoforms listed, Table of Exemplary Drugs, CYP3A4): 2D6, MAO
PLASMA PROTEIN BINDING (plasma protein; CYP3A4): 35%

CCN1CCC[C@H]1CNC(=O)c1c(OC)ccc(Br)c1OC [Remoxipride]
ORAL BIOAVAILABILITY [1, 15]: 96%
PLASMA PROTEIN BINDING (plasma protein; CYP2D6): 5-6%
HALF-LIFE [3, 15]: 3 to 6 h

CN1CCN2c3ccccc3Cc3ccccc3C2C1 (stereo not shown) [Mianserin]
ORAL BIOAVAILABILITY [1, 15]: 20-30%
PLASMA PROTEIN BINDING (plasma protein; CYP2D6): 90%
HALF-LIFE [3, 15]: 1.4 h

CCC1(c2ccccc2)C(=O)NCNC1=O [Primidone]
ORAL BIOAVAILABILITY [1, 12]: 90-100%
PLASMA PROTEIN BINDING (plasma protein; CYP2C19): 20-30% ^
HALF-LIFE [3, 12]: 3.3 to 7 h

CCC1=C(C)CN(C(=O)NCCc2ccc(S(=O)(=O)NC(=O)N[C@H]3CC[C@H](C)CC3)cc2)C1=O [Glimepiride]
ORAL BIOAVAILABILITY [1, 16]: 100%
PLASMA PROTEIN BINDING (plasma protein; CYP2C9): >99%
HALF-LIFE [3, 16]: 5 to 9.2 h

CCOc1ccccc1OCCN[C@H](C)Cc1ccc(OC)c(S(N)(=O)=O)c1 [Tamsulosin (Flomax), Tamsulosin]
ORAL BIOAVAILABILITY [1, 10]: >90%
PLASMA PROTEIN BINDING (plasma protein; CYP3A4): 94-99% ^
HALF-LIFE [3, 10]: 9 to 15 h

CC(C)N(CCC(C(N)=O)(c1ccccc1)c1ccccn1)C(C)C (stereo not shown) [Disopyramide (Norpace), Disopyramide]
ORAL BIOAVAILABILITY [1, 10]: 80%
PLASMA PROTEIN BINDING (plasma protein; CYP3A4): 50-65% ^
HALF-LIFE [3, 10]: 6.7 h

COc1cccc(C2(O)CCCCC2CN(C)C)c1 (stereo not shown) [Tramadol]
ORAL BIOAVAILABILITY [1, 15]: 75%
PLASMA PROTEIN BINDING (plasma protein; CYP2D6): 20%
HALF-LIFE ([3]; in vivo): 5.6 to 5.7 h

CC(C)n1c(/C=C/C(O)CC(O)CC(=O)O)c(-c2ccc(F)cc2)c2ccccc21 (stereo not shown) [Fluvastatin]
ORAL BIOAVAILABILITY [1, 16]: 24%
PLASMA PROTEIN BINDING (plasma protein; CYP2C9): 98%
HALF-LIFE [3, 16]: 2.5 h

CC(=O)Nc1ccc(O)cc1 [Paracetamol]
ORAL BIOAVAILABILITY [1, 13]: 85-98%
PLASMA PROTEIN BINDING (plasma protein; CYP1A2): 10-25% ^
HALF-LIFE [3, 13]: 1 to 4 h

Polyunsaturated FAs
ORAL BIOAVAILABILITY [1, 16]: 64-73%
PLASMA PROTEIN BINDING (plasma protein; CYP2C9): >99%
HALF-LIFE [3, 16]: 2.7 to 5.5 h

O=C(NCC1CCCCN1)c1cc(OCC(F)(F)F)ccc1OCC(F)(F)F (stereo not shown) [Flecainide]
ORAL BIOAVAILABILITY [1, 15]: 70-95%
PLASMA PROTEIN BINDING (plasma protein; CYP2D6): 40%
HALF-LIFE [3, 15]: 20 h
